{"source": "patent US5494917A", "about": "“Cognition enhancing quinuclidine compound” (Kanegafuchi Kagaku Kogyo Kabushiki Kaisha, priority 1993, dated 1996)", "key": {"[1]": {"assay": "Acute toxicity test, oral", "type": "in vivo, ddY male mice", "settings": "mouse, in vivo; oral, 2 weeks observation; estimated", "protocol": "(§1) As experimental animals, Wistar male rats and ddY male mice were used for the experiments after they were housed for a week under every 12 hours'dark-light cycle at room temperature of 24° to 26° C.\n(§2) With respect to Compounds 1a and 1b shown in Table 1 as test compounds, the acute toxicity was examined using ddY mice according to the following method.\n(§3) In each group, six male ddY mice weighing 27 to 30 g were employed. Compounds 1a and 1b suspended in an aqueous solution of 0.5% sodium carboxymethylcellulose were orally administered in a dose of 0.1 ml/10 g body weight. […] The LD50 (mg/kg) values were estimated from the ratio of the number of dead mice to the number of mice used."}, "[2]": {"tested_on": "ddY mice", "assay": "Acute toxicity test, oral", "type": "in vivo, ddY male mice", "settings": "100 mg/kg oral, 2 weeks observation, 0.5% sodium carboxymethylcellulose", "protocol": "as §1, §2, §3"}, "[3]": {"tested_on": "experimental amnesia in rat induced by lesioning basal forebrain (BF)", "assay": "Anti-amnesic effect: step-through passive avoidance, amnesia induced by BF lesion (ibotenic acid)", "type": "in vivo, Wistar male rat", "settings": "for Latency: retention after 24 hours, max 300 s; for minimal effective dose: Rattus norvegicus, oral, BF lesion amnesia, read-out: most potent minimal effective dose", "protocol": "as §1\nThe effect on experimental amnesia in rat induced by lesioning basal forebrain (BF) was evaluated.\nThe experiment was carried out using an experimental apparatus of step-through type passive avoidance task for rat (made by Ohara-ika-sangyoK.K. ) comprising two compartments of dark and light. That is, the dark compartment (height: 200 cm, width: 150 cm, length: 200 cm) was a black plastic box and was floored with stainless grids for giving an electrical shock so that an electricity might be turned on a determined time after interception of a photobeam placed in the dark compartment. The light compartment made of transparent plastic (height: 200 cm, width: 250 cm, length: 200 cm) was provided adjacent to the dark compartment and was lightened from a location spaced 25 cm above by a 60 W electric lamp. Between the two compartments, there was provided an entrance with a guillotine door which could be opened and closed, and when the guillotine door was opened, a rat could freely move from one compartment to another.\nAmnesia was induced by BF lesion. Among presently known methods for inducing amnesia, this method is considered to provide an animal model having the most similar pathology to Alzheimer's disease. The BF lesion was carried out by fixing an animal to a stereotaxic apparatus under nembutal anesthesia, inserting a stainless pipe into the BF area according to the brain map of Koenig, and injecting ibotenic acid bilaterally from the stainless pipe. In the sham-operation group, although craniotomy was carried out, ibotenic acid was not injected and therefore BF was not lesioned. The animals were used for experiments after recovery period of about 4 weeks.\nAnti-amnesic effect was evaluated according to the following procedure.\nA Wistar male rat (9 week-old) previously conditioned in the dark-light box was put in the light compartment and the guillotine door was opened. When the rat moved into the dark compartment, 150 V electrical shock was given for 3 seconds from the floor grid (aquisition trial). After 24 hours, retention trial was carried out in the same manner as in the aquisition trial, and latency, a period until the animal put in the light compartment entered the dark compartment, was measured maximally 300 seconds.\nEvery test compound was suspended in a distilled water containing 2.5% of gum arabic and 0.2% of Tween 80. […] The doses were 0.01 to 10 mg/kg."}, "[4]": {"target": "T1, M2 receptor (Rattus norvegicus, UniProt P10980)", "T1 construct": "from tissue; host or cells: rat heart, 40,000 g membrane fraction", "T1 sequence (P10980 1-466)": "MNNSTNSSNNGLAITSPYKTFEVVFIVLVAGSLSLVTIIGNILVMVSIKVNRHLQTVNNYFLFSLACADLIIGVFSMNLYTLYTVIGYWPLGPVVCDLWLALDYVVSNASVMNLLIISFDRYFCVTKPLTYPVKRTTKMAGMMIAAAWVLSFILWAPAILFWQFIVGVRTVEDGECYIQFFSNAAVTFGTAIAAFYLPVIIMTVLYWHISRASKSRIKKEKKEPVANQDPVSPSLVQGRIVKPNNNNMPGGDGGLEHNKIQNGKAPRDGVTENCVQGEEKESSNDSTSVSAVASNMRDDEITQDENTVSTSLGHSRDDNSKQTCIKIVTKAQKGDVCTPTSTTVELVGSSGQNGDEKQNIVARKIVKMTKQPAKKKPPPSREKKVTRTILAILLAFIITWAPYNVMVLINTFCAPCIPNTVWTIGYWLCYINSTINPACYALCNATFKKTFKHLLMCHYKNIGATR", "assay": "M2 receptor binding ((3H)N-methyl scopolamine, heart)", "protocol": "The binding ability to M2 receptor was determined according to a modification of the method of Buckley et al. (Mol. Pharmacol., 35, 469 (1989)). Concretely, 10 volume (W/V) of 50 mM Tris-HCl buffer (pH 7.4) was added to rat's heart, and after the homogenization with polytron, the homogenate was centrifuged and washed twice at 500 g for 10 minutes. The resulting supernatant was centrifuged four times at 40,000 g for 20 minutes. To 450 μl of the test liquid which was prepared by re-suspending the resulting precipitate, were added 200 μl of (^3 H)N-methyl scopolamine, a muscarinic specific antagonist, and 100 μl of a test medicinal compound. After the incubation at 22° C. for 90 minutes, the amount of (^3 H)N-methyl scopolamine found was determined.\n(§4) Ki is an affinity of a medicinal compound for a receptor, which is calculated from the following formula: [formula]\n(§5) In addition, nH is pseudo Hill coefficient which represents the number of a binding part of a receptor. When the values of IC50 and Ki are smaller, a binding ability of a medicinal compound to a receptor is stronger."}, "[5]": {"target": "T2, M1 receptor (Rattus norvegicus, UniProt P08482)", "T2 construct": "from tissue; host or cells: Wistar male rat cerebral cortex, washed homogenate", "T2 sequence (P08482 1-460)": "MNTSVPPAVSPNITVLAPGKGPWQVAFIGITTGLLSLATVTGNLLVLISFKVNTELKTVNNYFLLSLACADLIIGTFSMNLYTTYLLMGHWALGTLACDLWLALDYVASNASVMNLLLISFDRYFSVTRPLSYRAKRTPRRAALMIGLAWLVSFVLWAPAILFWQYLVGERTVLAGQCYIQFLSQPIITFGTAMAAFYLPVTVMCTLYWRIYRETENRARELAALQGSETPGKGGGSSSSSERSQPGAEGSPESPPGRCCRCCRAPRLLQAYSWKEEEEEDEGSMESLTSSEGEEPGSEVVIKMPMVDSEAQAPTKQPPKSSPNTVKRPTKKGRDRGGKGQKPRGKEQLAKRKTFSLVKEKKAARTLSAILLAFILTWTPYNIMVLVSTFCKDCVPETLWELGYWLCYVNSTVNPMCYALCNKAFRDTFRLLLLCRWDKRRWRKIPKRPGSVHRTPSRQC", "assay": "M1 receptor binding ((3H)pirenzepine, cerebral cortex)", "design": "species or system Wistar male rat", "settings": "for nH (pseudo Hill coefficient) / IC50 / Ki: (3H)pirenzepine, rat cerebral cortex; for IC50: 25° C., 60 minutes, pH 7.4; for Ki: calculated from IC50; for M1 receptor binding ability / selectivity (in words): M1 vs M2; for M1 receptor binding ability compared with muscarinic agonists (in words): vs AF102B and McN-A-343", "protocol": "The binding ability of the test compounds to M1 receptor was determined according to a modification of the method of Watson et al. (Life Sci., 32, 3001 (1983)). Concretely, 100 volume (W/V) of 10 mM Na--K phosphate buffer (pH 7.4) was added to a cerebral cortex of a Wistar male rat, and after the homogenization with polytron, the homogenate was centrifuged and washed twice. To 1 ml of the test liquid which was prepared by re-suspending the resulting precipitate, were added 20 μl of (^3 H)pirenzepine, M1 receptor specific antagonist, and 20 μl of a test medicinal compound. After the incubation at 25° C. for 60 minutes, the mixture was filtrated and washed with a glass filter, and an amount of (^3 H)pirenzepine bound to the receptor was counted by means of a liquid scintillation counter.\nas §4, §5"}, "[6]": {"settings": "0.1 mg/kg p.o., 1 hour before aquisition trial"}, "[7]": {"settings": "1.0 mg/kg p.o., 1 hour before aquisition trial"}, "[8]": {"settings": "(3H)N-methyl scopolamine, rat heart, 22° C., 90 minutes, pH 7.4"}}}
{"smiles": "C(=C1/CN2CCC1CC2)/c1cccc(Oc2ccccc2)c1", "note": "[Compound 1a]", "values": [{"measurement": "LD50 at 336 h", "setting": "[1]", "value": "≥ 100", "unit": "mg/kg"}, {"measurement": "dead mice", "setting": "[2]", "value": "no dead mice"}, {"measurement": "Latency", "setting": "[3]; [6]", "value": 38, "unit": "s"}, {"measurement": "Latency", "setting": "[3]; [7]", "value": 156, "unit": "s"}, {"measurement": "minimal effective dose", "setting": "[3]", "value": 1, "unit": "mg/kg"}, {"measurement": "IC50", "setting": "[4]; [8]", "value": "> 10", "unit": "µM"}, {"measurement": "nH (pseudo Hill coefficient)", "setting": "[5]", "value": "0.9 ± 0.06"}, {"measurement": "IC50", "setting": "[5]", "value": "221 ± 32", "unit": "nM"}, {"measurement": "Ki", "setting": "[5]", "value": "152 ± 22", "unit": "nM"}, {"measurement": "M1 receptor binding ability / selectivity (in words)", "setting": "[5]", "value": "strong and specific M1 receptor binding ability"}, {"measurement": "M1 receptor binding ability compared with muscarinic agonists (in words)", "setting": "[5]", "value": "stronger binding ability to M1 than muscarinic agonists, AF102B (in course of clinical testing) and McN-A-343"}]}
{"smiles": "C[N+](C)(C)CC#CCOC(=O)Nc1cccc(Cl)c1", "note": "[McN-A-343, 4[[[3-chlorophenyl)amino]carbonyl]oxy]-N, N, N-trimethyl-2-butyn-1-aminium chloride, reference compound]", "values": [{"measurement": "IC50", "setting": "[4]; [8]", "value": "> 10", "unit": "µM"}, {"measurement": "nH (pseudo Hill coefficient)", "setting": "[5]", "value": "0.9 ± 0.05"}, {"measurement": "IC50", "setting": "[5]", "value": "842 ± 88", "unit": "nM"}, {"measurement": "Ki", "setting": "[5]", "value": "581 ± 61", "unit": "nM"}]}
{"smiles": "C(=C1\\CN2CCC1CC2)/c1cccc(Oc2ccccc2)c1", "note": "[Compound 1b]", "values": [{"measurement": "LD50 at 336 h", "setting": "[1]", "value": "≥ 100", "unit": "mg/kg"}, {"measurement": "dead mice", "setting": "[2]", "value": "no dead mice"}, {"measurement": "Latency", "setting": "[3]; 0.01 mg/kg p.o., 1 hour before aquisition trial", "value": 76, "unit": "s"}, {"measurement": "Latency", "setting": "[3]; [6]", "value": 182, "unit": "s"}, {"measurement": "Latency", "setting": "[3]; [7]", "value": 139, "unit": "s"}, {"measurement": "Latency", "setting": "[3]; 10 mg/kg p.o., 1 hour before aquisition trial", "value": 99, "unit": "s"}, {"measurement": "minimal effective dose", "setting": "[3]", "value": 0.1, "unit": "mg/kg"}, {"measurement": "nH (pseudo Hill coefficient)", "setting": "[4]; (3H)N-methyl scopolamine, rat heart", "value": "1.0 ± 0.02"}, {"measurement": "IC50", "setting": "[4]; [8]", "value": "4.4 ± 0.1", "unit": "µM"}, {"measurement": "Ki", "setting": "[4]; (3H)N-methyl scopolamine, rat heart, calculated from IC50", "value": "1700 ± 40", "unit": "nM"}, {"measurement": "IC50", "setting": "[4]; M2 receptor binding", "value": "≤ 10", "unit": "µM"}, {"measurement": "M2 receptor binding ability weaker than M1 receptor binding ability", "setting": "[4]; M2 vs M1", "value": "about 190 times"}, {"measurement": "nH (pseudo Hill coefficient)", "setting": "[5]", "value": "0.8 ± 0.07"}, {"measurement": "IC50", "setting": "[5]", "value": "23 ± 3", "unit": "nM"}, {"measurement": "Ki", "setting": "[5]", "value": "16 ± 2", "unit": "nM"}, {"measurement": "M1 receptor binding ability / selectivity (in words)", "setting": "[5]", "value": "strong and specific M1 receptor binding ability"}, {"measurement": "M1 receptor binding ability compared with muscarinic agonists (in words)", "setting": "[5]", "value": "stronger binding ability to M1 than muscarinic agonists, AF102B (in course of clinical testing) and McN-A-343"}]}
{"smiles": "CC1OC2(CS1)CN1CCC2CC1", "note": "(stereo not drawn) [AF102B, cis-2-methylspiro(1,3-oxathiolane-5,3') quinuclidine, reference compound]", "values": [{"measurement": "minimal effective dose", "setting": "[3]", "value": 1, "unit": "mg/kg"}, {"measurement": "IC50", "setting": "[4]; [8]", "value": "> 10", "unit": "µM"}, {"measurement": "nH (pseudo Hill coefficient)", "setting": "[5]", "value": "0.8 ± 0.01"}, {"measurement": "IC50", "setting": "[5]", "value": "729 ± 116", "unit": "nM"}, {"measurement": "Ki", "setting": "[5]", "value": "509 ± 80", "unit": "nM"}]}
{"smiles": "Nc1c2c(nc3ccccc13)CCCC2", "note": "[Tacrine, tetrahydroaminoacridine, reference compound]", "values": [{"measurement": "Latency", "setting": "[3]; 1.0 mg/kg p.o., 30 minutes before aquisition trial", "value": 79, "unit": "s"}, {"measurement": "Latency", "setting": "[3]; 5.0 mg/kg p.o., 30 minutes before aquisition trial", "value": 188, "unit": "s"}]}
